Patent publication US20240198287A1, “CARBON DIOXIDE RECOVERING METHOD AND CARBON DIOXIDE RECOVERING DEVICE” (MITSUBISHI GAS CHEMICAL COMPANY, INC., priority 2021, published 2024)

Assay: Acid dissociation constant (pKa) by acid-base titration
Assay type: physicochemical
Settings: purified water; titration with 0.1 N perchloric acid-acetic acid solution, 25±2° C.
Procedure: In the present description, the acid dissociation constant of the amine compound (a) is a value obtained by the following measurement method based on an acid-base titration method. • (1) Dissolving 0.2 g of the amine compound (a) in 30 mL of purified water. • (2) Calculating the acid dissociation constant (pKa) by titrating the solution obtained in the above (1) with 0.1 N perchloric acid-acetic acid solution using an automatic potentiometric titrator (for example, AT-610 produced by Kyoto Electronics Manufacturing Co., Ltd.).
Still, let a temperature at a time of measurement be 25±2° C.
The acid dissociation constant of the amine compound (a) was determined by the following method. • (1) Dissolving 0.2 g of the amine compound (a) in 30 mL of the purified water. • (2) Calculating the acid dissociation constant (pKa) by titrating the solution obtained in the above (1) with the 0.1 N perchloric acid-acetic acid solution using the automatic potentiometric titrator (AT-610 produced by Kyoto Electronics Manufacturing Co., Ltd.).
Still, let the temperature at the time of measurement be 25±2° C.

pKa: 10.8
SMILES: NCC1CCCC(CN)C1 (stereo not shown) [1,3-BAC, 1,3-bis(aminomethyl)cyclohexane]
